How the values were obtained:
human LTA4 hydrolase = target: T1, human LTA4 hydrolase (Homo sapiens, UniProt P09960); assay: LTA4H Enzyme assay (peptidase, Arg-AMC cleavage); assay type: biochemical; conditions: LTA4H enzyme 1 nM, Arg-AMC substrate 50 μM, room temperature 1 h, fluorescence 380/460 nm
T1 sequence (P09960 1-611): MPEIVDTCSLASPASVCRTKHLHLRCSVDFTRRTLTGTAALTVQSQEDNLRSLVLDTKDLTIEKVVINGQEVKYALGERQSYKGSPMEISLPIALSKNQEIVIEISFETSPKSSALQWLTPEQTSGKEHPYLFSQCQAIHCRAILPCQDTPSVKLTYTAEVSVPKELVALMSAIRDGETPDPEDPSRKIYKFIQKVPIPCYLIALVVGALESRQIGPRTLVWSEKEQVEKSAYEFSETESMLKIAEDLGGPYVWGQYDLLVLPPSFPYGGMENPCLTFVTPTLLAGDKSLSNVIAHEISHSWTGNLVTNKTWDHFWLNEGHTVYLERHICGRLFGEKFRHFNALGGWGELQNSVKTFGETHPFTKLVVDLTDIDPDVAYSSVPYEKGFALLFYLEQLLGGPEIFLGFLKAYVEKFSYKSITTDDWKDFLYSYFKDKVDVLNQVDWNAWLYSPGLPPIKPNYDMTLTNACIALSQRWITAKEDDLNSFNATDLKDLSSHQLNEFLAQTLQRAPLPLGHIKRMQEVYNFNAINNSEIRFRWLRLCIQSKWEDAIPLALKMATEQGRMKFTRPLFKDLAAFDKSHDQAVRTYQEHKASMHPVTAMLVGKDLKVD
Procedure: The compounds of the invention are assessed for the ability to interact with human LTA4 hydrolase in an enzymatic assay that measures the ability of the enzyme to cleave the peptide bond of arginyl-aminomethylcoumarin (Arg-AMC). LTA4H Enzyme (1 nM final), Arg-AMC substrate (50 μM final), and compound are combined in a reaction buffer (50 mM Tris-HCl (pH 7.5), 100 mM KCl, 0.5% bovine serum albumin) at room temperature for 1 h. The formation of product is assessed by measuring the fluorescence of aminomethylcoumarin product (excitation wavelength 380 nm/emission wavelength 460 nm). In general, the preferred potency range (IC50) of compounds in the LTA4H Enzyme assay is between 0.1 nM to 10 μM, the more preferred potency range is 0.1 nM to 0.1 μM, and the most preferred potency range is 0.1 nM to 10 nM.

[1] = tested on: LTB4 synthesis in human whole blood; assay: human whole blood (HWB) assay, inhibition of LTB4 production; assay type: cell-based; conditions: heparinized human whole blood, calcimycin 20 μM stimulation, plasma LTB4
Procedure: The compounds of the invention are additionally tested in a human whole blood (HWB) assay to determine their ability to inhibit the synthesis of LTB4 in a cellular system. Compounds are combined with heparinized human whole blood and incubated for 15 minutes at 37° C. Calcimycin (20 μM final, prepared in phosphate-buffered saline, pH 7.4) is then added and the mixture is incubated for another 30 minutes at 37° C. The samples are centrifuged for 5 min at low speed (1500×g) and the plasma layer is removed. Plasma LTB4 concentrations are then measured using an antibody-based homogenous time-resolved fluorescence method (CisBio, Bedford, Mass.). In general, the preferred potency range (IC50) of compounds in the HWB assay is between 10 nM to 10 μM, the more preferred potency range is 10 nM to 1 μM, and the most preferred potency range is 10 nM to 100 nM.

Structure (SMILES)	IC50 (human LTA4 hydrolase) [nM]	IC50 [1] [nM]
CC(=O)N1CC(CN(C)Cc2ccc3cc(Oc4ccc(-c5ccn[nH]5)cn4)ccc3n2)C1 [Example 36, 1-{3-[(Methyl-{6-[5-(2H-pyrazol-3-yl)-pyridin-2-yloxy]-quinolin-2-ylmethyl}-amino)-methyl]-azetidin-1-yl}-ethanone]	0.98	240
CC(=O)N1CCN(Cc2cc3ccc(Oc4ccc(-c5ccn[nH]5)cn4)cc3[nH]2)CC1 [Example 221, 1-(4-{6-[5-(2H-Pyrazol-3-yl)-pyridin-2-yloxy]-1H-indol-2-ylmethyl}-piperazin-1-yl)-ethanone]	0.27	170
COC[C@H]1CCCN1Cc1nc2cc(Oc3ccc(-c4ccn[nH]4)cc3)ccc2[nH]1 [Example 167, 2-((R)-2-Methoxymethyl-pyrrolidin-1-ylmethyl)-5-[4-(2H-pyrazol-3-yl)-phenoxy]-1H-benzoimidazole]	0.14	120
COC(=O)c1ccc(CN2C[C@@H]3C[C@H]2CN3Cc2nc3cc(Oc4ccc(-c5ccn[nH]5)cc4)ccc3[nH]2)cc1 [Example 150, 4-((1S,4S)-5-{5-[4-(2H-Pyrazol-3-yl)-phenoxy]-1H-benzoimidazol-2-ylmethyl}-2,5-diaza-bicyclo[2.2.1]hept-2-ylmethyl)-benzoic acid methyl ester]	0.32	300
c1cc(-c2ccc(Oc3ccc4nc(CN5CCCC5)ccc4c3)cc2)[nH]n1 [Example 243, 6-[4-(2H-Pyrazol-3-yl)-phenoxy]-2-pyrrolidin-1-ylmethyl-quinoline]	0.065	66
CC(=O)N1CCN(CCn2ncc3cc(Oc4ccc(-c5ccn[nH]5)cn4)ccc32)CC1 [Example 94, 1-[4-(2-{5-[5-(2H-Pyrazol-3-yl)-pyridin-2-yloxy]-indazol-1-yl}-ethyl)-piperazin-1-yl]-ethanone]	1.3	150
c1cc(-c2ccc(Oc3ccc4nn(CCCN5CCOCC5)cc4c3)cc2)[nH]n1 [Example 84, 2-(3-Morpholin-4-yl-propyl)-5-[4-(2H-pyrazol-3-yl)-phenoxy]-2H-indazole]	0.36	120
CC(=O)N1CCN(Cc2cc3cc(Oc4ccc(-c5ccn[nH]5)cn4)ccc3cn2)CC1 [Example 223, 1-(4-{6-[5-(2H-Pyrazol-3-yl)-pyridin-2-yloxy]-isoquinolin-3-ylmethyl}-piperazin-1-yl)-ethanone]	0.94	230
CC(=O)N[C@H]1C[C@H]2CC[C@@H](C1)N2CC1Cc2ccc(Oc3ccc(-c4ccn[nH]4)cc3)cc2O1 (stereo partly drawn) [Example 131, N-((endo)-8-{6-[4-(2H-Pyrazol-3-yl)-phenoxy]-2,3-dihydro-benzofuran-2-ylmethyl}-8-aza-bicyclo[3.2.1]oct-3-yl)-acetamide]	0.17	120
C[C@@H]1CN(C(=O)CO)CCN1Cc1ccc2cc(Oc3ccc(-c4ccn[nH]4)cn3)ccc2n1 [Example 38, 2-Hydroxy-1-((R)-3-methyl-4-{6-[5-(2H-pyrazol-3-yl)-pyridin-2-yloxy]-quinolin-2-ylmethyl}-piperazin-1-yl)-ethanone]	0.76	280
COC1CCCN(Cc2nc3cc(Oc4ccc(-c5ccn[nH]5)cc4)ccc3[nH]2)C1 (stereo not shown) [Example 172, 2-(3-Methoxy-piperidin-1-ylmethyl)-5-[4-(2H-pyrazol-3-yl)-phenoxy]-1H-benzoimidazole]	0.07	130
CC(=O)NC1CCN(CCCn2cc3cc(Oc4ccc(-c5ccn[nH]5)cc4)ccc3n2)CC1 [Example 116, N-[1-(3-{5-[4-(2H-Pyrazol-3-yl)-phenoxy]-indazol-2-yl}-propyl)-piperidin-4-yl]-acetamide]	0.95	580
CN(C)Cc1ccc2cc(Oc3ccc(-c4ccn[nH]4)cc3)ccc2n1 [Example 123, Dimethyl-{6-[4-(2H-pyrazol-3-yl)-phenoxy]-quinolin-2-ylmethyl}-amine]	0.44	240
CCN(Cc1nc2cc(Oc3ccc(-c4ccn[nH]4)cc3)ccc2[nH]1)C(=O)C1CC1 [Example 235, Cyclopropanecarboxylic acid ethyl-{5-[4-(2H-pyrazol-3-yl)-phenoxy}-1H-benzoimidazol-2-ylmethyl}-amide]	0.43	180
c1cc(-c2ccc(Oc3ccc4nc(CN5CCCCC5)ccc4c3)nc2)[nH]n1 [Example 23, 2-Piperidin-1-ylmethyl-6-[5-(2H-pyrazol-3-yl)-pyridin-2-yloxy]-quinoline]	0.48	90
CC1(NC(=O)CO)CCN(Cc2ccc3cc(Oc4ccc(-c5ccn[nH]5)cn4)ccc3n2)CC1 [Example 46, 2-Hydroxy-N-(4-methyl-1-{6-[5-(2H-pyrazol-3-yl)-pyridin-2-yloxy]-quinolin-2-ylmethyl}-piperidin-4-yl)-acetamide]	1.6	540
CC(=O)N(C)C1CCN(Cc2ccc3cc(Oc4ccc(-c5ccn[nH]5)cn4)ccc3n2)CC1 [Example 37, N-Methyl-N-(1-{6-[5-(2H-pyrazol-3-yl)-pyridin-2-yloxy]-quinolin-2-ylmethyl}-piperidin-4-yl)-acetamide]	0.86	270
COCC(=O)N1CCN(Cc2ccc3cc(Oc4ccc(-c5ccn[nH]5)cn4)ccc3n2)CC1 [Example 28, 2-methoxy-1-(4-{6-[5-(2H-pyrazol-3-yl)-pyridin-2-yloxy]-quinolin-2-ylmethyl}-piperazin-1-yl)-ethanone]	0.87	150
CN(Cc1nc2cc(Oc3ccc(-c4ccn[nH]4)cc3)ccc2[nH]1)C1CCCC1 [Example 164, Cyclopentyl-methyl-{5-[4-(2H-pyrazol-3-yl)-phenoxy]-1H-benzoimidazol-2-ylmethyl}-amine]	0.14	120
c1cc(-c2ccc(Oc3ccc4nc(CN5CCC5)ccc4c3)cc2)[nH]n1 [Example 244, 2-Azetidin-1-ylmethyl-6-[4-(2H-pyrazol-3-yl)-phenoxy]-quinoline]	0.048	120
NC(=O)N1CCN(Cc2ccc3cc(Oc4ccc(-c5ccn[nH]5)cn4)ccc3n2)CC1 [Example 43, 4-{6-[5-(2H-Pyrazol-3-yl)-pyridin-2-yloxy]-quinolin-2-ylmethyl}-piperazine-1-carboxylic acid amide]	3.9	380
CC(=O)NC[C@@H]1[C@H]2CN(Cc3ccc4cc(Oc5ccc(-c6ccn[nH]6)cn5)ccc4n3)C[C@@H]12 [Example 41, N-((1α,5α,6α)-3-{6-[5-(2H-Pyrazol-3-yl)-pyridin-2-yloxy]-quinolin-2-ylmethyl}-3-aza-bicyclo[3.1.0]hex-6-ylmethyl)-acetamide]	0.99	320
O=C(CO)N1CC2CCC(C1)N2Cc1ccc2cc(Oc3ccc(-c4ccn[nH]4)cn3)ccc2n1 [Example 132, 2-Hydroxy-1-(8-{6-[5-(2H-pyrazol-3-yl)-pyridin-2-yloxy]-quinolin-2-ylmethyl}-3,8-diaza-bicyclo[3.2.1]oct-3-yl)-ethanone]	0.28	140
CC(=O)N1CCN(Cc2cnc3cc(Oc4ccc(-c5ccn[nH]5)cc4)ccc3n2)CC1 [Example 241, 1-(4-{6-[4-(2H-Pyrazol-3-yl)-phenoxy]-quinoxalin-2-ylmethyl}-piperazin-1-yl)-ethanone]	3.5	980
C[C@@H](NCc1ccc2cc(Oc3ccc(-c4ccn[nH]4)cn3)ccc2n1)C(N)=O [Example 34, (R)-2-({6-[5-(2H-Pyrazol-3-yl)-pyridin-2-yloxy]-quinolin-2-ylmethyl}-amino)-propionamide]	5.7	800
c1cc(-c2ccc(Cc3ccc4nc(CN5CCOCC5)cn4c3)cc2)[nH]n1 [Example 252, 2-Morpholin-4-ylmethyl-6-[4-(2H-pyrazol-3-yl)-benzyl]-imidazo[1,2-a]pyridine]	0.93	250
